We go through three compounds from article PMC11623267, “Inhibitors of malaria parasite cyclic nucleotide phosphodiesterases block asexual blood-stage development and mosquito transmission” (Science Advances, 2024).

For experiment [1], the system named is P. falciparum ABS. Particulars: read-out: EC50 P. falciparum ABS growth inhibition; cited from earlier work.
The target of experiment [2] is T1, PDEβ (Plasmodium falciparum, UniProt Q8I6Z7).
T1 construct: endogenous in cells; host or cells: P. falciparum 3D7 schizonts, NP-40 membrane lysate
The experiment in a line: cAMP hydrolysis SPA in schizont membrane lysates. Type of experiment: biochemical. Particulars: read-out: IC50 against PDEβ. The text has this:
We identified three PDE inhibitor chemical series generated by Pfizer, with structures in the public domain, which have activity against malaria parasites (see the “Chemistry strategy summary” section). These series were originally designed to inhibit human PDEs and were chosen as chemistry start points to optimize activity against malaria parasites. More than 400 new analogs were generated (full details of their properties will be reported in a separate paper, in preparation) through iterative rounds of synthesis and testing. The chemistry start points for each of the series were SAL-0010042 (5-benzyl), SAL-0010043 (5-aryl), and SAL-0010034 (2-alkyl) (see Materials and Methods and fig. S1A). S2. Analytical data for these compounds are provided in data S1. All newly synthesized compounds were tested for inhibition of native cAMP-PDE activity in mature schizont crude membrane preparations and inhibition of P. falciparum ABS growth. S3A. […] The unbound EC50 values for the compounds in the parasite growth inhibition assay were consistently calculated to be sevenfold higher than the IC50 values in the biochemical assay. Given that PDEβ is dual specific (i.e., can hydrolyze both cAMP and cGMP), we also determined IC50 values for cGMP hydrolysis. […] The IC50 values measured for cGMP hydrolysis in blood-stage schizonts were generally similar to those for cAMP hydrolysis (Table 1). […]
The cyclic nucleotide hydrolytic activity of membrane-associated parasite PDE enzymes was measured by a scintillation proximity assay (SPA) ([18]) using lysates of mature P. falciparum schizonts or stage IV/V gametocytes. […] The IC50 values for the compounds were determined using threefold serial dilutions in duplicate. […] The reactions were terminated by addition of 25 μl of PDE SPA beads (PerkinElmer, RPNQ0150), and after 20 min of incubation at room temperature, scintillation was measured using a Wallac 1450 Microbeta Counter (PerkinElmer) for 30 s. […]

In experiment [3] the test system is recombinant human PDE9. More on the design: method as in PMID 25555060, PMID 21766240. Particulars: cited from earlier work.
Experiment [4] has as its system P. falciparum stage V gametocytes (male gamete formation). The experiment in a line: Exflagellation (male gamete formation) inhibition assay. Particulars: 2 μM, 48 hours. Type of experiment: cell-based, Plasmodium falciparum. The protocol: The exflagellation inhibition assay was performed by capturing movement of exflagellation centers over time by video microscopy [adapted from a reported protocol ([52])]. For this carry-over format, mature stage V gametocytes were treated with 2 μM of each compound for 48 hours before induction of exflagellation in the presence of compound. To evaluate compound dose response, gametocytes were treated similarly at a set of concentrations representing a fourfold serial dilution. Mature gametocyte cultures (>95% stage V; 500 μl) were centrifuged at 3500 rpm for 30 s, and the pellet was resuspended in 30 μl of ookinete medium [RPMI 1640 medium containing L-glutamine (Sigma-Aldrich, R6504), gentamycin (0.024 mg/ml; HyClone, SV30080.01), 202 μM hypoxanthine (Sigma-Aldrich, H9636), 25 mM Hepes (Sigma-Aldrich, H4034), 0.2% glucose (Sigma-Aldrich, G6152), and 0.5% (w/v) AlbuMAX II (Invitrogen, Paisley, UK), supplemented with 100 μM XA and 20% human serum]. The activated culture (10 μl) was introduced into a Neubauer chamber and placed on the microscope platform to settle homogenously. Time was noted as time zero (T0), and the chamber was incubated at room temperature. Movement was recorded by video microscopy using a Carl Zeiss NT 6V/10W Stab microscope, fitted with a MicroCapture camera at 10× magnification, and then quantified by a semiautomated method, a modification of the method described previously ([53]). A series of 15 videos of 8 to 10 s each were captured at random locations between 15 and 22.5 min after incubation. Each video was analyzed using Icy bioimage analysis software to quantify the number of exflagellating centers. Compound IC50 values were determined with nonlinear curve fitting (GraphPad Prism 6), normalized to maximum and minimum inhibition.

Experiment [5] deals with P. falciparum stage IV/V gametocytes. Description: LDH-based gametocyte viability assay. The class given is cell-based, Plasmodium falciparum. To be noted: stage IV to V gametocytes. The protocol: The pLDH assay was performed on late (>95% stage IV/V) gametocytes. Compound dilutions were placed in triplicate in 96-well plates in a final volume of 100 μl per well. DHA and MMV048 were used as positive drug controls. The gametocyte cultures (100 μl per well) were added to the 96-well plates to achieve a final gametocytemia and hematocrit of 2 and 1%, respectively, in a total incubation volume of 200 μl. Plates were incubated at 37°C for 72 hours, followed by the replacement of spent medium with drug-free culture medium (75% medium change) ([54], [55]). Plates were then incubated for a further 72 hours before assessing viability by measuring pLDH activity. Gametocyte viability was determined spectrophotometrically by measuring the activity of pLDH, according to a modified version of a published protocol ([56]). Briefly, 100 μl of Malstat reagent [0.21% (v/v) Triton X-100, 222 mM L-(+)-lactic acid, 54.5 mM tris, 0.166 mM APAD (Sigma-Aldrich, A5251), adjusted to pH 9 with 1 M NaOH] was transferred into a clean 96-well plate. A fixed volume of 20 μl of parasite suspension per well was added to the Malstat plate, followed by the addition of 25 μl of PES/NBT (0.239 mM phenazine ethosulfate and 1.96 mM nitro blue tetrazolium chloride). Absorbance was measured with a Multiskan Ascent 354 multiplate scanner (Thermo LabSystems, Finland) at 620 nm.

The subject of experiment [6] is P. falciparum stage V gametocytes (female gamete formation). The experiment in a line: Female gamete formation inhibition assay. Type of experiment: cell-based, Plasmodium falciparum. To be noted: 2 μM, 48 hours. Here is the method: Mature gametocytes (>95% stage V) were treated with compounds (2 μM) for 48 hours before stimulating female gamete formation. To evaluate compound dose response, gametocytes were treated similarly at set concentrations representing a fourfold serial dilution. Female gamete activation was induced by both a temperature drop and the addition of 100 μM XA. Monoclonal anti-Pfs25 antibody (BEI Resources, catalog number MRA-28; 1:1000 dilution) conjugated to fluorescein isothiocyanate was used to detect female gametes. Image acquisition was performed using a Zeiss Axio Lab.A1 epifluorescence microscope with a 100/1.4 numerical aperture oil immersion objective and a Zeiss Axiocam 202 mono digital camera. Using a 100× objective, 30 images were taken per sample and analyzed manually. The number, size, roundness, and intensity of fluorescence of activated female gametocytes were evaluated. Compound IC50 values were determined with nonlinear curve fitting (GraphPad Prism 6), normalized to maximum and minimum inhibition.

In experiment [7] the test system is P. falciparum Dd2. The experiment in a line: P. falciparum Dd2 LDH growth inhibition assay (asexual blood stage). The class given is cell-based, Plasmodium falciparum. To be noted: multidrug-resistant Dd2; geometric mean ×/÷ geometric SD. The protocol: (§1) P. falciparum isolates (3D7/Dd2) were obtained from BEI Resources and were cultured using standard procedures as described elsewhere ([47]). Briefly, P. falciparum was grown in RPMI 1640 medium (10.3 g/liter) supplemented with L-glutamine (2 mM), hypoxanthine (150 μM), Hepes (25 mM), D-glucose (12 mM), sodium bicarbonate (25.7 mM), AlbuMAX II (0.5% or 5 g/liter) (pH 7.4), and 2% RBC (type O+, freshly prepared). Cultures were replenished with fresh medium and RBCs every other day. For RBC preparation, whole blood was centrifuged at 415g at room temperature for 12 min. After that, the plasma and buffy coat were removed, and packed RBCs were washed three times with 3 vol of RPMI 1640. Last, RBCs were resuspended in 1:1 vol of complete RPMI 1640 medium (containing 0.5% AlbuMAX II).
(§2) The P. falciparum 3D7 and Dd2 LDH growth inhibition assay was carried out as described elsewhere ([48]) with minor modification of the parasitological conditions (10 to 15% parasitemia with ≥80% rings). Data were normalized to percent growth inhibition with respect to […] (for 3D7, a mixture of 100 nM chloroquine and 100 nM atovaquone as 100% inhibition; for Dd2, a mixture of 200 nM DHA and 200 nM atovaquone as 100% inhibition) controls.

In experiment [8] the test system is P. falciparum 3D7. The experiment in a line: Ex vivo schizont maturation assay, 3D7 control (Brazil). To be noted: tested in parallel with Brazilian isolates, 20% human serum. The class given is cell-based, Plasmodium falciparum. Here is the method:
Only monoinfected patients with P. falciparum with parasitemia between 2000 and 80,000 parasites/μl and with at least 70% of ring-stage parasites were recruited. Patients who had used an antimalarial in the previous month and/or presented with symptoms of severe malaria were excluded from the study. The study cohort comprised 24 patients living in this highly endemic area. A peripheral venous blood sample (5 ml) was collected from each individual by venipuncture in heparin-containing tubes and immediately used in the ex vivo drug susceptibility assay using preprepared plates containing diluted antimalarial compounds. […] Last, 20 μl of each dilution was transferred into the ex vivo assay plate and diluted 10-fold into the final assay medium containing parasites. For the infected blood preparation, 5 ml of whole blood was centrifuged at 800g for 10 min, and the plasma and buffy coat were removed. […] Control assays on a 3D7 laboratory isolate were performed with medium supplemented with human serum (20%). The iRBC (180 μl per well) were distributed in the predosed drug plate. […] Control wells containing drug-free iRBCs were cultured with complete medium. […] The number of schizonts per 200 asexual-stage parasites was determined for each drug concentration and then normalized by comparing with the schizont number in the drug-free control wells [considered as 100% ([64])]. […]

For experiment [9], the system named is P. falciparum clinical isolates from Porto Velho, Brazil. The experiment in a line: Ex vivo schizont maturation assay, Brazilian clinical isolates. The class given is cell-based, Plasmodium falciparum. Particulars: eight Brazilian isolates; read-out: Median EC50, clinical isolates. Here is the method:
Only monoinfected patients with P. falciparum with parasitemia between 2000 and 80,000 parasites/μl and with at least 70% of ring-stage parasites were recruited. Patients who had used an antimalarial in the previous month and/or presented with symptoms of severe malaria were excluded from the study. The study cohort comprised 24 patients living in this highly endemic area. A peripheral venous blood sample (5 ml) was collected from each individual by venipuncture in heparin-containing tubes and immediately used in the ex vivo drug susceptibility assay using preprepared plates containing diluted antimalarial compounds. […] Last, 20 μl of each dilution was transferred into the ex vivo assay plate and diluted 10-fold into the final assay medium containing parasites. For the infected blood preparation, 5 ml of whole blood was centrifuged at 800g for 10 min, and the plasma and buffy coat were removed. […] Control assays on a 3D7 laboratory isolate were performed with medium supplemented with human serum (20%). The iRBC (180 μl per well) were distributed in the predosed drug plate. […] Control wells containing drug-free iRBCs were cultured with complete medium. The parasite-drug incubation was terminated when 40% of the ring stages reached the schizont stage (at least three distinct nuclei per parasite) in the drug-free control wells. Thick blood films were then made from each well, dried, stained with 5% Giemsa solution for 30 min, and examined microscopically. The number of schizonts per 200 asexual-stage parasites was determined for each drug concentration and then normalized by comparing with the schizont number in the drug-free control wells [considered as 100% ([64])]. The half-maximal drug inhibitory response (EC50) was estimated by curve fitting using software from the OriginLab Corporation, Northampton, MA, USA and comparing with parasite growth in the drug-free controls.

The subject of experiment [10] is malaria parasites. More on the design: method as in PMID 25951195, PMID 33262483. To be noted: cited from earlier work.
In experiment [11] the test system is PDE6. Further details: method as in PMID 29743944. To be noted: cited from earlier work.
Experiment [12] has as its system P. falciparum 3D7. The experiment in a line: P. falciparum 3D7 LDH growth inhibition assay (asexual blood stage). Type of experiment: cell-based, Plasmodium falciparum. To be noted: Plasmodium falciparum, 3D7, read-out: EC50 against ABS parasites. Here is the method:
as §1, §2

T1 sequence (Q8I6Z7 whole entry): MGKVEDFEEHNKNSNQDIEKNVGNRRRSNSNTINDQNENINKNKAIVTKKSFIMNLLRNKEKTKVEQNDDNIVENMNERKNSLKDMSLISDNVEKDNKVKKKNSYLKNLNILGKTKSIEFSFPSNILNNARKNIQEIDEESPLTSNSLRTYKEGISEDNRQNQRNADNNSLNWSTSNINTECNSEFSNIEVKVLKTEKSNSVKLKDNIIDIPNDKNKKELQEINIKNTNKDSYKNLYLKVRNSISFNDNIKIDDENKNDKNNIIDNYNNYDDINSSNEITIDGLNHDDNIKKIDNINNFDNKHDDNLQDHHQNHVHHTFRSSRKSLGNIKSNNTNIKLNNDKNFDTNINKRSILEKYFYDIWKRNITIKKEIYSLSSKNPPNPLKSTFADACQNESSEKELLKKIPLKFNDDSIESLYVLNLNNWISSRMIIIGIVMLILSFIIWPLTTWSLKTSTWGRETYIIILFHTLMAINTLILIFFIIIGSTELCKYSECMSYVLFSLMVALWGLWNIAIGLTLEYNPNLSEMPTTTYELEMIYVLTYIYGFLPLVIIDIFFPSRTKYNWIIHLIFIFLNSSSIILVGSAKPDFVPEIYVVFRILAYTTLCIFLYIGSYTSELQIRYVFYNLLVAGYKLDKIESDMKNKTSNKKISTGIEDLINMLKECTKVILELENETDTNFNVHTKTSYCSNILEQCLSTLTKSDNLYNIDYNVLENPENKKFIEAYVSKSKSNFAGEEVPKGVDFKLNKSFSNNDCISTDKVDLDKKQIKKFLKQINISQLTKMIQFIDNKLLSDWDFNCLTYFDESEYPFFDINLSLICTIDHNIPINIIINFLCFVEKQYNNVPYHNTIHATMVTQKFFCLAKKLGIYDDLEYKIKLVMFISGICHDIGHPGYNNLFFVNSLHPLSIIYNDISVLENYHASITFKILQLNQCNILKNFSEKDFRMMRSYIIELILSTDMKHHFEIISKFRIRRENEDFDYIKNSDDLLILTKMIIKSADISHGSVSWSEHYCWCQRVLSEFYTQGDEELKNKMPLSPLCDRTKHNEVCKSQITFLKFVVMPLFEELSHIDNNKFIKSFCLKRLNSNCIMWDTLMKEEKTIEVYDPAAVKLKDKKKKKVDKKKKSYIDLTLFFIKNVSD

For the compound `CC(C)c1n[nH]c2c(=O)[nH]c(Cc3ccccc3)nc12` [BIPPO, 5-benzyl-3-isopropyl-1H-pyrazolo[4,3-d]pyrimidin-7(6H)-one], in experiment [1], the EC50 (in general, the concentration that produces a half-maximal response) is 400 nM. The IC50 (in general, the concentration needed to halve the response being measured) in experiment [2] turned out to be 9 nM. Moreover, in experiment [3], the “Potency against recombinant human PDE9” value is 30 nM.
Consider `CCc1c2nc(-c3cc(C(=O)NC(C)C)cnc3OCC(C)C)[nH]c(=O)c2nn1CCOC` [SAL-0010255], for which the “% inhibition of exflagellation at 2 μM” value in [4] amounted to 48.8 ± 25.3%. Besides, the “% inhibition gametocyte viability at 15 μM” value in [5] stood at 40.4 ± 3.1%. Also, the “% inhibition of female gamete formation at 2 μM” value in experiment [6] is 66.7 ± 1.8%. Also, the EC50 in [7] was 126 nM; in [8], 89 nM; in [9], 157 nM.
With `CCCc1nn(C)c2c(=O)[nH]c(-c3cc(S(=O)(=O)N4CCN(C)CC4)ccc3OCC)nc12` [sildenafil], in experiment [10], the “IC50 against malaria parasites” value is reported as “mid-to-high micromolar range”. Also, the “Selectivity (PDE5 over PDE6)” value in experiment [11] was < 10 fold. Also, the half-maximal effective concentration (EC50) in [12] is > 25000 nM. In addition, the IC50 in experiment [2] is > 10000 nM.
